Five compounds from PubChem BioAssay AID1918991 (Molecular Pharmacology Branch, DTP, NCI, 2023) can be followed below.

Values joined by “and” are separate entries in the source; they are usually repeats but may differ in a detail not shown here. Identical values can stand only once.

The subject of the test is 186277-243-T-J2-PDC complex spheroid growth. Nature of the test: Anticancer human tumor 186277-243-T-J2-PDC patient-derived colon adenocarcinoma cell line growth inhibition [AhR]. The settings on record: for viability, T/C: stronger effect = lower value. The text has this:
Multicellular complex tumor spheroid response to aryl hydrocarbon receptor antagonists in combination with a variety of drugs and investigational agents in selected tumor cell lines
The current study was undertaken to assess response to aryl hydrocarbon receptor antagonists in combination with standard-of-care drugs and investigational agents in solid tumor complex spheroid models. Complex spheroids include a stromal component modeled by human endothelial cells (HUVEC) and fibroblasts modeled by human mesenchymal stem cells (MSCs). The concentration ranges selected for each drug and investigational agent were based upon clinically achievable concentrations if the clinical Cmax of the agent was known.
Compounds. The drugs and investigational agents: BAY 2416964 (NSC825713), GNF351 (NSC835774), CH-223191 (NSC835775), CPI-455 (NSC825282), aza-TdCyd (NSC777586), decitabine (NSC127716), belinostat (NSC758774), entinostat (NSC756642), pevonedistat (NSC761192), tazemetostat (NSC777109), talazoparib (NSC765396), olaparib (NSC753686), selinexor (NSC780203), nedisertib (M3814, NSC802822), bortezomib (NSC756655), venetoclax (NSC766270), doxorubicin (NSC123127), elimusertib (BAY189344, NSC800525), ceralasertib (AZD6738, NSC777638), TAK-243 (NSC785004), alisertib (NSC759677), etoposide (NSC141540), topotecan (NSC609699), eribulin (NSC707389), gemcitabine (NSC613327), carboplatin (NSC241240), cisplatin (NSC119875), and SN-38 (NSC673596) were obtained from the National Cancer Institute (NCI) Developmental Therapeutics Program Chemical Repository (32). The FDA-approved anticancer drug set is available from the Developmental Therapeutics Program at https://dtp.cancer.gov/organization/dscb/obtaining/available plates.htm. […] The stock solutions were prepared in dimethyl sulfoxide (DMSO, Sigma-Aldrich, St. Louis, MO, cat. D2650), except for the platinum compounds which were prepared in saline (Quality Biological, Gaithersburg, MD, cat. 114-055-101), at 800-fold the tested concentration and stored at -70 degrees C prior to their use. All drugs and investigational agents were tested over a range starting from a high concentration at or near the clinical Cmax and decreasing in half-log increments. If the clinical Cmax for an agent had not been determined, the highest concentration tested was 10 microM (Table 1).
Cell Culture. All cells were maintained in an incubator at 37 degrees C and 5% CO2 with 95% humidity. The PDC lines were cultured according to standard operating procedures established by the NCI PDMR (https://pdmr.cancer.gov). Briefly, all PDCs were thawed and cultured in Matrigel-coated flasks prepared with a working solution of 1X Ham's F-12 nutrient mix, without supplementation (Invitrogen, Waltham, MA, cat. 11765054), 100 U/mL penicillin-streptomycin (Invitrogen, cat. 15140122), and 2.5% Matrigel (Corning Inc., Corning, NY, cat. 354248) for the first three passages. All PDCs were cultured in complete DMEM/F-12 media containing advanced DMEM/F-12 (Invitrogen, cat. 12634028), 4.9% defined fetal bovine serum, heat inactivated (HyClone Laboratories Inc., Logan, UT, cat. SH30070.03HI), 389 ng/mL hydrocortisone (Sigma-Aldrich, cat. H4001), 9.7 ng/mL human EGF recombinant protein (Invitrogen, cat. PHG0313), 23.4 microg/mL adenine (Sigma-Aldrich, cat. A2786), 97.3 U/mL penicillin-streptomycin (Invitrogen, cat. 15140122), 1.9 mM L-glutamine (Invitrogen, cat. 25030081), and 9.7 microM Y-27632 dihydrochloride (Tocris Bioscience, Bristol, United Kingdom, cat. 1254). The PDCs were cultured in complete DMEM/F12 media without 10 microM Y-27632 dihydrochloride for at least two passages prior to the screen. The established cell lines NCI-H1341 and […] were cultured in DMEM/F-12, HEPES (Invitrogen, cat. 11330032), 5% defined fetal bovine serum (HyClone Laboratories Inc., cat. SH30070.03), ITS premix universal culture supplement [insulin (5 microg/mL), transferrin (5 microg/mL), and selenious acid (5 ng/mL)] […]

[1] abbreviates: curve of first compound, second compound 0.1 µM.
[2] abbreviates: curve of first compound, second compound 0.316 µM.
The mark [3] stands for this setting: curve of first compound, second compound 1 µM.
Setting [4] is: curve of first compound, second compound 3.16 µM.
Where [5] appears, read: curve of first compound, second compound 10 µM.
Where [6] appears, read: second compound 0.1 µM, first compound 0.0316 µM.
Setting [7] is: second compound 0.1 µM, first compound 0.1 µM.
[8] abbreviates: second compound 0.1 µM, first compound 0.316 µM.
Where [9] appears, read: second compound 0.1 µM, first compound 1 µM.
Setting [10] is: second compound 0.1 µM, first compound 3.16 µM.
Where [11] appears, read: second compound 0.1 µM, first compound 10 µM.
The mark [12] stands for this setting: second compound 0.316 µM, first compound 0.0316 µM.
Setting [13] is: second compound 0.316 µM, first compound 0.1 µM.
[14] abbreviates: second compound 0.316 µM, first compound 0.316 µM.
Where [15] appears, read: second compound 0.316 µM, first compound 1 µM.
[16] abbreviates: second compound 0.316 µM, first compound 3.16 µM.
Where [17] appears, read: second compound 0.316 µM, first compound 10 µM.
The mark [18] stands for this setting: second compound 1 µM, first compound 0.0316 µM.
The mark [19] stands for this setting: second compound 1 µM, first compound 0.1 µM.
Where [20] appears, read: second compound 1 µM, first compound 0.316 µM.
The mark [21] stands for this setting: second compound 1 µM, first compound 1 µM.
[22] abbreviates: second compound 1 µM, first compound 3.16 µM.
Where [23] appears, read: second compound 1 µM, first compound 10 µM.
[24] abbreviates: second compound 3.16 µM, first compound 0.0316 µM.
[25] abbreviates: second compound 3.16 µM, first compound 0.1 µM.
The mark [26] stands for this setting: second compound 3.16 µM, first compound 0.316 µM.
Where [27] appears, read: second compound 3.16 µM, first compound 1 µM.
Where [28] appears, read: second compound 3.16 µM, first compound 3.16 µM.
[29] abbreviates: second compound 3.16 µM, first compound 10 µM.
The mark [30] stands for this setting: second compound 10 µM, first compound 0.0316 µM.
Setting [31] is: second compound 10 µM, first compound 0.1 µM.
The mark [32] stands for this setting: second compound 10 µM, first compound 0.316 µM.
Setting [33] is: second compound 10 µM, first compound 1 µM.
Where [34] appears, read: second compound 10 µM, first compound 3.16 µM.
The mark [35] stands for this setting: second compound 10 µM, first compound 10 µM.
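Further: spheroids exposed to compounds for seven days before the viability read.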
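Wherever viability, T/C is given: luminescent signal used as a stand-in for viable cell amount; 100% = DMSO vehicle control wells.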

On to `Nc1ccccc1NC(=O)c1ccc(CNC(=O)OCc2cccnc2)cc1`, for which the viability, T/C reads like this: (compound 0.0316 µM) 88.5% and 90.8% and 86.3%; (compound 0.1 µM) 93.2% and 91.9% and 87.4%; (compound 0.316 µM) 76.2% and 99.5% and 68.8%; (compound 1 µM) 86.5% and 92.2% and 37%; (compound 3.16 µM) 68.6% and 79.5% and 12.6%; (compound 10 µM) 8.95% and 16.8% and 0.82%. The IC50 (curve of compound) is 4.53 µM and 5.44 µM and 0.639 µM.

Consider `NS(=O)(=O)OCC1CC(n2ccc3c(NC4CCc5ccccc54)ncnc32)CC1O` (centres undefined) + Cc1ccccc1N=Nc1ccc(NC(=O)c2ccnn2C)c(C)c1, for which the half-maximal inhibitory concentration (IC50) was 0.853 µM under setting [1]; 0.633 µM under setting [2]; 0.59 µM under setting [3]; 0.457 µM under setting [4]; 0.304 µM under setting [5]. The viability, T/C runs as follows: under setting [6], 106%; under setting [7], 97.9%; under setting [8], 77.6%; under setting [9], 43.7%; under setting [10], 23.1%; under setting [11], 7.4%. Also, the viability, T/C reads like this: under setting [12], 109%; under setting [13], 117%; under setting [14], 67.1%; under setting [15], 38%; under setting [16], 19.6%; under setting [17], 8.23%. Also, the viability, T/C was 110% under setting [18]; 110% under setting [19]; 61.4% under setting [20]; 38.6% under setting [21]; 20.1% under setting [22]; 9.57% under setting [23]. Also, the viability, T/C is, setting by setting: under setting [24], 103%; under setting [25], 97.5%; under setting [26], 50.2%; under setting [27], 36.3%; under setting [28], 13.6%; under setting [29], 5.34%. Besides, the viability, T/C is, setting by setting: under setting [30], 93.7%; under setting [31], 80%; under setting [32], 43.5%; under setting [33], 29.8%; under setting [34], 10.1%; under setting [35], 4.53%.

Take `Nc1ccn(C2OC(CO)C(O)C2(F)F)c(=O)n1` (centres undefined) + CC(CO)NC(=O)c1cc(-c2ccc(Cl)cc2)nn(-c2cnn(C)c2)c1=O: the IC50 is under 0.0316 µM under setting [1]; under 0.0316 µM under setting [2]; under 0.0316 µM under setting [3]; under 0.0316 µM under setting [4]; under 0.0316 µM under setting [5]. Also, the viability, T/C is 5.01% under setting [6]; 4.63% under setting [7]; 4.51% under setting [8]; 3.71% under setting [9]; 4.16% under setting [10]; 4.38% under setting [11]. Besides, the viability, T/C under setting [12] is 4.41%; the viability, T/C under setting [13] is 4.36%; the viability, T/C under setting [14] is 4.44%; the viability, T/C under setting [15] is 4.03%; the viability, T/C under setting [16] was 4.3%; the viability, T/C under setting [17] was 4.3%. The viability, T/C under setting [18] is 5.04%; the viability, T/C under setting [19] is 4.97%; the viability, T/C under setting [20] was 4.99%; the viability, T/C under setting [21] was 4.1%; the viability, T/C under setting [22] is 5.44%; the viability, T/C under setting [23] was 4.54%. Also, the viability, T/C under setting [24] was 5.3%; the viability, T/C under setting [25] was 4.96%; the viability, T/C under setting [26] is 5.78%; the viability, T/C under setting [27] was 5.41%; the viability, T/C under setting [28] was 5.04%; the viability, T/C under setting [29] was 4.36%. In addition, the viability, T/C under setting [30] is 5.62%; the viability, T/C under setting [31] was 5.79%; the viability, T/C under setting [32] was 5.42%; the viability, T/C under setting [33] was 5.48%; the viability, T/C under setting [34] is 5.6%; the viability, T/C under setting [35] is 4.96%.

Regarding `CC(C)CC(NC(=O)C(Cc1ccccc1)NC(=O)c1cnccn1)B(O)O` (centres undefined), the viability, T/C (compound 0.000949 µM) is 106% and 98.7% and 108%; the viability, T/C (compound 0.003 µM) was 96.2% and 116% and 102%; the viability, T/C (compound 0.03 µM) is 0.39% and 1.22% and 0.15%; the viability, T/C (compound 0.0949 µM) was 0.17% and 1.7% and 0.16%; the viability, T/C (compound 0.3 µM) was 0.21% (2×) and 1.15%. Further, the IC50 (curve of compound) was 0.0142 µM and 0.0156 µM and 0.00549 µM.

Consider `O=C(C=Cc1cccc(S(=O)(=O)Nc2ccccc2)c1)NO`, for which the viability, T/C runs as follows: (compound 0.0316 µM) 96.8% and 107% and 99.7%; (compound 0.1 µM) 93.5% and 112% and 84.1%; (compound 0.316 µM) 99.1% and 95.8% and 46.9%; (compound 1 µM) 55.2% and 91.8% and 13.2%; (compound 10 µM) 5.03% and 5.28% and 0.5%. Also, the half-inhibitory concentration (IC50) (curve of compound) is 1.16 µM and 2.16 µM and 0.285 µM.

As usually defined, the viability, T/C is the result in the treated group divided by that in the control group, in per cent. For orientation: IC50 means the concentration needed to halve the response being measured.
